Measured values from paper PMC5391474, “Investigation of the Role of Protein Kinase D in Human Rhinovirus Replication” (Journal of Virology, 2017).

Key:
Test in all cases: biochemical
Set-up in all cases: in vitro kinase selectivity panel, protein and lipid kinases, single concentration, ATP at Km
Conditions in all cases: ATP at Km
ARK5(h) = molecular target: T1, ARK5(h) (Homo sapiens, UniProt O60285)
T1 construct: gene NUAK1
Procedure, shortened: (§1)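 Single-point screen against a protein and lipid kinase panel: inhibitor at 1 μM. ATP concentration for every kinase equivalent to its Km.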

PKCδ(h) = molecular target: T2, PKCδ(h) (Homo sapiens, UniProt Q05655)
T2 construct: gene PRKCD
T2 sequence (Q05655 whole entry): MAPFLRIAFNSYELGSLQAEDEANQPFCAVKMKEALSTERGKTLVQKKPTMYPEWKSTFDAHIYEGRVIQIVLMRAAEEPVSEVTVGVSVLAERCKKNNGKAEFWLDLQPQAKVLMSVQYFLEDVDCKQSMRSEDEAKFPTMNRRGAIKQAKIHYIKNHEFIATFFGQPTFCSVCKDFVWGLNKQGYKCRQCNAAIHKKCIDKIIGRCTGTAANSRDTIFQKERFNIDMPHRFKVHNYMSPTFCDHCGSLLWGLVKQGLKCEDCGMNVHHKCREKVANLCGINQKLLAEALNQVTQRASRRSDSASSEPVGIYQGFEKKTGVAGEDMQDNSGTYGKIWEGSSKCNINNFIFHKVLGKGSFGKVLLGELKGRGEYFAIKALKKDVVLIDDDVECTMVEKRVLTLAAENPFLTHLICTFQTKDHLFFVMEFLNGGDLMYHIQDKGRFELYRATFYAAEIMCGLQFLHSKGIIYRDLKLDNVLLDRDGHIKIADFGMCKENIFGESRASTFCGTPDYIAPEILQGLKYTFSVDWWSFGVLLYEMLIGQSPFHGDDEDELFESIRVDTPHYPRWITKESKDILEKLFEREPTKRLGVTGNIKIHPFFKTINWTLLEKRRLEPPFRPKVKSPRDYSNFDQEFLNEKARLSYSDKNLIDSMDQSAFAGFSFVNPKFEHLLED
Procedure, shortened: as §1

CK1γ2(h) = molecular target: T3, CK1γ2(h) (Homo sapiens, UniProt P78368)
T3 construct: gene CSNK1G2
Procedure, shortened: as §1

ErbB4(h) = ErbB4(h) (Homo sapiens, UniProt Q15303)
Procedure, shortened: as §1

EphA7(h) = EphA7(h) (Homo sapiens, UniProt Q15375)
Chain of EphA7(h) (Q15375 whole entry): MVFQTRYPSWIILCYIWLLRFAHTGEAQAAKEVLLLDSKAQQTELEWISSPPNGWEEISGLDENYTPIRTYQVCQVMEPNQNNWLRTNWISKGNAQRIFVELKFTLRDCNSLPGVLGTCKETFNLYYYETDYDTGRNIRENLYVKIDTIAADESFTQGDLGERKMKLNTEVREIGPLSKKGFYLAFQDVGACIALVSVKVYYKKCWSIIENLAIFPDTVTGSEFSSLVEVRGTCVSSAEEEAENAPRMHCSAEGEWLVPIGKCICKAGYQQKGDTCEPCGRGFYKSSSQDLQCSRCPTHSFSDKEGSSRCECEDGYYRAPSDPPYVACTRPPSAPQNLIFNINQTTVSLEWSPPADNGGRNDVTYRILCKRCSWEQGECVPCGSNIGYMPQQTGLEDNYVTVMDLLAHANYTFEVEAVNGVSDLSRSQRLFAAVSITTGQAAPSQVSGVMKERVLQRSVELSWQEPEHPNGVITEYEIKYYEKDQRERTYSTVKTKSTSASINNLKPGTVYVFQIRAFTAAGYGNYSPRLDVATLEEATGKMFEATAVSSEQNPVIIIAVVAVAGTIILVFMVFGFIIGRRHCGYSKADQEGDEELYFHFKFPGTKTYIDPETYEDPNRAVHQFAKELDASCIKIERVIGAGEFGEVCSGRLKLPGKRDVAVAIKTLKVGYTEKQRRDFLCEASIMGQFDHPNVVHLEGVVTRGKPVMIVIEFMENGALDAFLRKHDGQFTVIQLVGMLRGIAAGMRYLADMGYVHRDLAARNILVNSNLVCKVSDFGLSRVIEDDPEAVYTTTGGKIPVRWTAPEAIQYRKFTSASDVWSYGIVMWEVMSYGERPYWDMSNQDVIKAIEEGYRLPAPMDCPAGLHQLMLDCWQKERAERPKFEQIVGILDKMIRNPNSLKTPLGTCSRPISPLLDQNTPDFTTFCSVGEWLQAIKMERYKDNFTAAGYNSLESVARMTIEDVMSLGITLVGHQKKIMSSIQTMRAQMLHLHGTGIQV
Procedure, shortened: as §1

DYRK2(h) = DYRK2(h) (Homo sapiens, UniProt Q92630)
Procedure, shortened: as §1

NEK2(h) = NEK2(h) (Homo sapiens, UniProt P51955)
Procedure, shortened: as §1

CK1γ1(h) = molecular target: T4, CK1γ1(h) (Homo sapiens, UniProt Q9HCP0)
T4 construct: gene CSNK1G1
T4 sequence (Q9HCP0 whole entry): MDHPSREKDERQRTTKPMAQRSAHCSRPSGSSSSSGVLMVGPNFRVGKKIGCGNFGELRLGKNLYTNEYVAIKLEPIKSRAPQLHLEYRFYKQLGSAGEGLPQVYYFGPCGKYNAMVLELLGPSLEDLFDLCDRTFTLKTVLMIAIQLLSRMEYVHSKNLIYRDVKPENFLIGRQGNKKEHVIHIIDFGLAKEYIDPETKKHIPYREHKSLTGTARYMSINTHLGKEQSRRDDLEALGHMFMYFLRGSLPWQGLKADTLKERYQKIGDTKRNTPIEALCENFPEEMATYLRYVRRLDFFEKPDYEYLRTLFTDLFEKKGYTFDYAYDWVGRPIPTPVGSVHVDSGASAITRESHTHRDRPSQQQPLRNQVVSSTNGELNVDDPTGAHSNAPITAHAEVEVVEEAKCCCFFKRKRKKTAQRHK
Procedure, shortened: as §1

PKBα(h) = molecular target: T5, PKBα(h) (Homo sapiens, UniProt P31749)
T5 construct: gene AKT1
T5 sequence (P31749 whole entry): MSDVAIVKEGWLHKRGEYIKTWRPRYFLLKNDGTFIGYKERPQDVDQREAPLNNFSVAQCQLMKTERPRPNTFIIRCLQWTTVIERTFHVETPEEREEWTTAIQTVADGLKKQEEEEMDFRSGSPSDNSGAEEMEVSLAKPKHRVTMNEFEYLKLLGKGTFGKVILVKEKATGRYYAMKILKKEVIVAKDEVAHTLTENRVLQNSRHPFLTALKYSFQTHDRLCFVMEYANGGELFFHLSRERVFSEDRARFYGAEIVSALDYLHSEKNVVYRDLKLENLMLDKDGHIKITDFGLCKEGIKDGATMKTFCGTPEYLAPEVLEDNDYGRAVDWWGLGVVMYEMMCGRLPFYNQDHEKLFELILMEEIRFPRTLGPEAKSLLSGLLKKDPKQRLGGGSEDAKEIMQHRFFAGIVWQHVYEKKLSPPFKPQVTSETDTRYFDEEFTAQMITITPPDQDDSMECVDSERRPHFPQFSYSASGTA
Procedure, shortened: as §1

CDK1/cyclinB(h) = CDK1/cyclinB(h) (Homo sapiens, UniProt P06493)
Chain of CDK1/cyclinB(h) (P06493 whole entry): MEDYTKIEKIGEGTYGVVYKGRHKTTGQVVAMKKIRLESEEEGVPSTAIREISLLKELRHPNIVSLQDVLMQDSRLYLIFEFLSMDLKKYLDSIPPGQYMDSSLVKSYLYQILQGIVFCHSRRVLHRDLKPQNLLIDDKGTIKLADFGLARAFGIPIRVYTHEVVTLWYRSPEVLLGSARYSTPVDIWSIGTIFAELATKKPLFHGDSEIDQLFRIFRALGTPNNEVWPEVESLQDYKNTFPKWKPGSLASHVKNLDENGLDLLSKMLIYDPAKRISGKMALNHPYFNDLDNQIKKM
Chain of CDK1/cyclinB(h) (P14635 whole entry partner): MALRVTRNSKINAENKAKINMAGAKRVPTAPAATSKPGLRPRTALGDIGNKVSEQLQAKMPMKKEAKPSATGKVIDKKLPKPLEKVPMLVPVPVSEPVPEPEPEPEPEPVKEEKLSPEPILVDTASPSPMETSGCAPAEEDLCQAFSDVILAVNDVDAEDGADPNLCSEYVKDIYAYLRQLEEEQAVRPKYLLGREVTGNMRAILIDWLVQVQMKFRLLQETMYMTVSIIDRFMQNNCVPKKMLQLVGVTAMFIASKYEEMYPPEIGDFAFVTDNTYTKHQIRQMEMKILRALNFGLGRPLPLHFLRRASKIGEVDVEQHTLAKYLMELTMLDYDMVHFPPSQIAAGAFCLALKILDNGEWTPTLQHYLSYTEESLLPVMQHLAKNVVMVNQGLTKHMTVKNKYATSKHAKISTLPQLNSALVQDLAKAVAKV
Procedure, shortened: as §1

PAK2(h) = PAK2(h) (Homo sapiens, UniProt Q13177)
Chain of PAK2(h) (Q13177 whole entry): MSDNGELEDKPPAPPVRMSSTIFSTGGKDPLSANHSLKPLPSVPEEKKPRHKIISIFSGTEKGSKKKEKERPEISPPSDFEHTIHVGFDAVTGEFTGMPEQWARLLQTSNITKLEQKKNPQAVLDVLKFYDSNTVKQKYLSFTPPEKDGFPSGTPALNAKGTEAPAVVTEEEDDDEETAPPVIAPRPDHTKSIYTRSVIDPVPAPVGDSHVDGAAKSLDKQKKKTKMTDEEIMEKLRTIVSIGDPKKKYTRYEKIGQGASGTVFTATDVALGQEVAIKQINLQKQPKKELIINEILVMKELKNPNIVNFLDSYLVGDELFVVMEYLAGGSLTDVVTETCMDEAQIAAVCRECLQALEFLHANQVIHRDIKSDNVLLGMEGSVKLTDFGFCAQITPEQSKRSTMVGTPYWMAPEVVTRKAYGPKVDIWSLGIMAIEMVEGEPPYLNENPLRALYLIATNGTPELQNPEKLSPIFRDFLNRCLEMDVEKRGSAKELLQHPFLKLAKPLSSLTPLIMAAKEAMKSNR
Procedure, shortened: as §1

TAK1(h) = molecular target: T6, TAK1(h) (Homo sapiens, UniProt O43318)
T6 construct: gene MAP3K7
Procedure, shortened: as §1

MAPK2(h) = molecular target: T7, MAPK2(h) (Homo sapiens, UniProt P28482)
T7 construct: gene MAPK1
T7 sequence (P28482 whole entry): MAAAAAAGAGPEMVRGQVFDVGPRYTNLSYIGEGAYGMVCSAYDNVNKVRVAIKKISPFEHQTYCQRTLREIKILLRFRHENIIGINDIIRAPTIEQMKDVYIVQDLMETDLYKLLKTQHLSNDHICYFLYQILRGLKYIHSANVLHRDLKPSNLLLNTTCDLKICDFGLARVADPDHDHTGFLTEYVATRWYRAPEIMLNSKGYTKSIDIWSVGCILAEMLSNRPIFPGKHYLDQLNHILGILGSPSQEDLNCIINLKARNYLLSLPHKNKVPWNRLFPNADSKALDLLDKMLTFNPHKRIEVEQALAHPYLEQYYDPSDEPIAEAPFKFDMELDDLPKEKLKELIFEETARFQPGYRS
Procedure, shortened: as §1

FGFR3(h) = FGFR3(h) (Homo sapiens, UniProt P22607)
Chain of FGFR3(h) (P22607 whole entry): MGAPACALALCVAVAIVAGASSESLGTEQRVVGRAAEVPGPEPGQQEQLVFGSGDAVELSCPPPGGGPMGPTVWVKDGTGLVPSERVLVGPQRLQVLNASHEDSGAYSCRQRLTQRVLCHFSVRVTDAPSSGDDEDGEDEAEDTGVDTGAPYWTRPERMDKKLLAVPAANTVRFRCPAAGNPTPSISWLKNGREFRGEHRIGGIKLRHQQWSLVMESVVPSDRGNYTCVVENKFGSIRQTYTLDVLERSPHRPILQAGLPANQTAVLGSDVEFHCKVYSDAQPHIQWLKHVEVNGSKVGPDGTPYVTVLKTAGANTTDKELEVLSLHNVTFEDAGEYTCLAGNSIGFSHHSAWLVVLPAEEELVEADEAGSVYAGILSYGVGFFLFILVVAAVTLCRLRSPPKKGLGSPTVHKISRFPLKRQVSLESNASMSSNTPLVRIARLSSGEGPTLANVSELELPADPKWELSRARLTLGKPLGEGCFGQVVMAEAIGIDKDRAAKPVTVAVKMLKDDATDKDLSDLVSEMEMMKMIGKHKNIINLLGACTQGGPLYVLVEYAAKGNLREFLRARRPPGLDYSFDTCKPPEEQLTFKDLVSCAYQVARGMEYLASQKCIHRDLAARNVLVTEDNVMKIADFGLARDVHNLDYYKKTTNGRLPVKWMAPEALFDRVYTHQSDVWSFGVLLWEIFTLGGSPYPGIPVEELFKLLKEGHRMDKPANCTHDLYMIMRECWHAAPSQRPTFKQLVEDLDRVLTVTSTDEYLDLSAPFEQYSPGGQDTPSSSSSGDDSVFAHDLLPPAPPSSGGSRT
Procedure, shortened: as §1

PKCθ(h) = molecular target: T8, PKCθ(h) (Homo sapiens, UniProt Q04759)
T8 construct: gene PRKCQ
Procedure, shortened: as §1

Pim-1(h) = molecular target: T9, Pim-1(h) (Homo sapiens, UniProt P11309)
T9 construct: gene PIM1
Procedure, shortened: as §1

Flt4(h) = Flt4(h) (Homo sapiens, UniProt P35916)
Procedure, shortened: as §1

Abl(T315I)(h) = molecular target: T10, Abl(T315I)(h) (Homo sapiens, UniProt P00519, T315I)
T10 construct: gene ABL1
Procedure, shortened: as §1

CC[C@@H](N)CNc1ccnc(-c2cc(-c3cnn(C)c3)ccc2O)n1 [CRT0066101]
inhibition at 1 µM (ARK5(h)): 49% | inhibition at 1 µM (PKCδ(h)): 28% | inhibition at 1 µM (CK1γ2(h)): 0% | inhibition at 1 µM (ErbB4(h)): 3% | inhibition at 1 µM (EphA7(h)): -9% | inhibition at 1 µM (DYRK2(h)): 94% | inhibition at 1 µM (NEK2(h)): 0% | inhibition at 1 µM (CK1γ1(h)): -5% | inhibition at 1 µM (PKBα(h)): -6% | inhibition at 1 µM (CDK1/cyclinB(h)): 63% | inhibition at 1 µM (PAK2(h)): 9% | inhibition at 1 µM (TAK1(h)): -6% | inhibition at 1 µM (MAPK2(h)): -9% | inhibition at 1 µM (FGFR3(h)): -2% | inhibition at 1 µM (PKCθ(h)): 6% | inhibition at 1 µM (Pim-1(h)): 98% | inhibition at 1 µM (Flt4(h)): 22% | inhibition at 1 µM (Abl(T315I)(h)): 5%
